Laboratory results published in patent US20110052684A1, “PHARMACEUTICAL COMPOSITION” (priority 2008, published 2011).
Counter-ions that a name gives are not always drawn.

Key:
Assay type in all cases: physicochemical
[1] = pKa (physicochemistry of the actives)
Text: The synchronous release of the combination of actives comprising the once-daily pharmaceutical compositions of the present invention is particularly surprising when one considers that the differing physicochemical characteristics of the active ingredients and the likely differences in the permeability coefficients for the combination of active drugs would result in a differing rate and extent of drug release for each of the drugs chosen to be part of the combination. Accordingly, it was expected that it would be difficult to optimize the release kinetics of the combination of drugs contemplated without one drug potentially negatively influencing the release kinetics of the other drug of the combination.

[2] = Dissolution, 900 ml pH 6.8 phosphate buffer, USP Apparatus 1, 75 rpm, 37° C.; settings: Example 29 homogenous CR tablet (batch no. 08070T)
Description: (§1) The dissolution profile of the above pharmaceutical composition was determined under the dissolution conditions described below in Tables 1A, 1B, and 1C.

[3] = Dissolution, 900 ml 0.1N HCl, USP Apparatus 1, 75 rpm, 37° C.; settings: Example 29 homogenous CR tablet (batch no. 08070T)
Description: as §1

[4] = Dissolution, 900 ml pH 7.5 phosphate buffer, Apparatus 1, 75 rpm, 37 C.
Description: FIG. 27 is a graph depicting the dissolution profile in 900 ml of pH 7.5 phosphate buffer using USP Apparatus 1 at 75 rpm at 37° C. of the composition described in Example 27.
FIG. 28 is a graph depicting the dissolution profile in 900 ml of pH 7.5 phosphate buffer using USP Apparatus 1 at 75 rpm at 37° C. of the composition described in Example 28.
The dissolution profile of the above pharmaceutical composition was determined under the dissolution conditions described below in Table 27.
The dissolution profile of the above pharmaceutical composition was determined under the dissolution conditions described below in Table 28. The result of the dissolution testing is presented as a % of the total tramadol HCl and meloxicam in the controlled release tablet (batch 1258-175) and also depicted in FIG. 28.

For `OCCOCCN1CCN(C2=Nc3ccccc3Sc3ccccc32)CC1` [Quetiapine Fumarate, quetiapine fumarate], which pKa [1] is on record?
Its pKa is 3.3.

For `CC(NC(C)(C)C)C(=O)c1cccc(Cl)c1` (stereo not shown) [Bupropion HBr, bupropion hydrobromide], which pKa [1] is on record?
Its pKa is 7.8.

For `COc1cccc(C2(O)CCCCC2CN(C)C)c1` (stereo not shown) [Tramadol HCl], which “% Released” value ([2]; 0.5 hr) is on record?
Its value is 19%.

And the “% Released” value ([2]; 1 hr)?
The value was 29%.

What about the “% Released” value ([2]; 2 hr) of the same molecule?
Its value is 44%.

What about the “% Released” value ([2]; 3 hr) of the same molecule?
The value was 55%.

What about the “% Released” value ([2]; 4 hr) of the same molecule?
The value was 65%.

What about the “% Released” value ([2]; 5 hr) of the same molecule?
Its value is 72%.

And the “% Released” value ([2]; 6 hr)?
Its value is 79%.

And the “% Released” value ([2]; 8 hr)?
The value was 90%.

And the “% Released” value ([2]; 10 hr)?
Its value is 98%.

What about the “% Released” value ([3]; 0.5 hr) of the same molecule?
The value was 18%.

And the “% Released” value ([3]; 1 hr)?
The value was 28%.

What about the “% Released” value ([3]; 2 hr) of the same molecule?
The value was 42%.

And the “% Released” value ([3]; 3 hr)?
Its value is 53%.

And the “% Released” value ([3]; 4 hr)?
Its value is 62%.

What about the “% Released” value ([3]; 5 hr) of the same molecule?
The value was 70%.

And the “% Released” value ([3]; 6 hr)?
Its value is 76%.

And the “% Released” value ([3]; 8 hr)?
The value was 86%.

And the “% Released” value ([3]; 10 hr)?
Its value is 93%.

And the “% Released” value ([3]; 12 hr)?
The value was 97%.

What about the “% Release” value ([4]; 2 hrs, Example 27 controlled release tablet (batch 1258-171), ethylcellulose coating) of the same molecule?
The value was 51%.

And the “% Release” value ([4]; 2 hrs, Example 28 controlled release tablet (batch 1258-175), Kollicoat SR 30D coating)?
Its value is 0%.

What about the “% Release” value ([4]; 4 hrs, Example 27 controlled release tablet (batch 1258-171), ethylcellulose coating) of the same molecule?
Its value is 70%.

And the “% Release” value ([4]; 4 hrs, Example 28 controlled release tablet (batch 1258-175), Kollicoat SR 30D coating)?
Its value is 7%.

What about the “% Release” value ([4]; 8 hrs, Example 27 controlled release tablet (batch 1258-171), ethylcellulose coating) of the same molecule?
The value was 96%.

And the “% Release” value ([4]; 8 hrs, Example 28 controlled release tablet (batch 1258-175), Kollicoat SR 30D coating)?
The value was 61%.

And the “% Release” value ([4]; 10 hrs, Example 27 controlled release tablet (batch 1258-171), ethylcellulose coating)?
Its value is 100%.

What about the “% Release” value ([4]; 10 hrs, Example 28 controlled release tablet (batch 1258-175), Kollicoat SR 30D coating) of the same molecule?
The value was 74%.

And the “% Release” value ([4]; 16 hrs, Example 27 controlled release tablet (batch 1258-171), ethylcellulose coating)?
The value was 100%.

And the “% Release” value ([4]; 16 hrs, Example 28 controlled release tablet (batch 1258-175), Kollicoat SR 30D coating)?
The value was 84%.
